Source: patent US20260139314A1, “COMPOSITION AND METHOD FOR PREDICTING SULFONYLUREA DEPENDENCY USING GIPR MARKER” (Seoul National University Hospital, priority 2022, published 2026)

Assays:
[1] = system: INS1 rat insulinoma cells; assay: GIP-induced insulin secretion (ELISA); type: cell-based; conditions: GIPR inhibitor 100 nM, 24 h
Procedure: INS1 rat insulinoma cells were transfected with 80-nM siRNA for Gipr and negative control.
(c) ELISA: Insulin secretion induced by GIP treatment (50 nM for 1 hour) was attenuated by siGipr. • siGipr, siRNA for Gipr; siNS, siRNA for negative control; siRNA, small interfering RNA; NS, no significant difference
(§1) INS1 rat insulinoma cells were treated with a GIPR inhibitor (rat GIP(3-30), 100 nM, 24 h) and the inhibition of insulin secretion by GIP was confirmed. Insulin secretion was stimulated with low-dose SU (50 nM glimepiride for 30 minutes) and measured using an ELISA kit.
Experiments were conducted to suppress the expression of the rat Gipr gene, which shares the same gene sequence as human GIPR.

[2] = system: INS1 rat insulinoma cells; assay: Insulin secretion stimulated with low-dose SU (50 nM glimepiride, ELISA); type: cell-based; conditions: non-diabetic conditions; GIPR inhibitor 100 nM, 24 h; 50 nM glimepiride for 30 minutes
Procedure: INS1 rat insulinoma cells were transfected with siGipr and siNS (80 nM) and stimulated for insulin secretion with low-dose SU (50 nM glimepiride for 30 minutes). Insulin secretion was measured using an ELISA kit.
(a) Physiological condition (b) Diabetic condition simulated by pre-treating with 15-mM glucose and 150-μM palmitic acid for 24 hours (glucolipotoxicity).
as §1
Next, the SU response was examined based on Gipr suppression. […] However, under diabetic conditions—chronic exposure to high glucose and fatty acids (glucolipotoxicity)—Gipr suppression increased insulin secretion in response to low-dose SU (FIG. 4b).

rat GIP(3-30)
Inhibition of insulin secretion by GIP [1]: confirmed | Insulin secretion by SU [2]: trend of enhanced insulin secretion
